Experimental data: patent publication US20110009343A1, “MODULATORS OF AMYLOID AGGREGATION” (Praecis Pharmaceuticals, Inc., priority 1995, published 2011)
Peptide text beside a SMILES is read from it. * marks the point of attachment. Cholyl = C[C@H](CCC(=O)*)[C@H]1CC[C@H]2[C@@H]3[C@H](O)C[C@@H]4C[C@H](O)CC[C@]4(C)[C@H]3C[C@H](O)[C@]12C

Tests used:
[1] = tested on: cultured neuronal cells; test: Neurotoxicity of Aβ1-40 preparations with or without modulator (MTT), cell line not specified; format: cell-based; details: for delay of the appearance of neurotoxicity relative to control: compared with delay of polymerization in nucleation assay
Procedure: The neurotoxicity of natural β-amyloid peptide aggregates, in either the presence or absence of a β-amyloid modulator, is tested in a cell-based assay using either a rat or human neuronally-derived cell line (PC-12 cells or NT-2 cells, respectively) and the viability indicator 3,(4,4-dimethylthiazol-2-yl)2,5-diphenyl-tetrazolium bromide (MTT). […] MTT (commercially available from Sigma Chemical Co.) is a chromogenic substrate that is converted from yellow to blue in viable cells, which can be detected spectrophotometrically.
To test the neurotoxicity of natural β-amyloid peptides, stock solutions of fresh Aβ monomers and aged Aβ aggregates were first prepared. […] Peptide prepared in this way and tested immediately on cells is referred to as “fresh” Aβ monomer. To prepare “aged” Aβ aggregates, peptide solution was placed in a 1.5 ml Eppendorf tube and incubated at 37° C. for eight days to allow fibrils to form. Such “aged” Aβ peptide can be tested directly on cells or frozen at −80° C. The neurotoxicity of fresh monomers and aged aggregates were tested using PC12 and NT2 cells. PC 12 cells were routinely cultured in Dulbeco's modified Eagle's medium (DMEM) containing 10% horse serum, 5% fetal calf serum, 4 mM glutamine, and 1% gentamycin. NT2 cells were routinely cultured in OPTI-MEM medium (GIBCO BRL CAT. #31985) supplemented with 10% fetal calf serum, 2 mM glutamine and 1% gentamycin. Cells were plated at 10-15,000 cells per well in 90 μl of fresh medium in a 96-well tissue culture plate 3-4 hours prior to treatment. The fresh or aged Aβ peptide solutions (10 μL) were then diluted 1:10 directly into tissue culture medium so that the final concentration was in the range of 1-10 μM peptide. Cells are incubated in the presence of peptide without a change in media for 48 hours at 37° C. For the final three hours of exposure of the cells to the β-AP preparation, MTT was added to the media to a final concentration of 1 mg/ml and incubation was continued at 37° C. Following the two hour incubation with MTT, the media was removed and the cells were lysed in 100 μL isopropanol/0.4N HCl with agitation. An equal volume of PBS was added to each well and the plates were agitated for an additional 10 minutes. Absorbance of each well at 570 nm was measured using a microtiter plate reader to quantitate viable cells.

[2] = molecular target: T1, Aβ1-40 (Homo sapiens, UniProt P05067); test: Nucleation assay (turbidity, A405 nm); format: biochemical; details: for ΔLag (ratio of lag time with test compound to lag time of control) / inhibition at 100 mol %: Table V; for ΔLag (ratio of lag time with test compound to lag time of control): 100 mole % inhibitor relative to Aβ1-40; for inhibition at 100 mol %: 100 mole % inhibitor, read-out: % Inucl'n (percent reduction in maximum observed turbidity);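 as to all read-outs here: synthetic Aβ monomer polymerization followed by turbidity in 96-well plates with continuous shaking, read every 15 minutes over 5 hours, compared against wells lacking test compound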
T1 construct: (β-AP1-40) was obtained commercially from Bachem (Torrance, Calif.); purchased Bachem (Torrance, Calif.)
T1 sequence (P05067 672-711): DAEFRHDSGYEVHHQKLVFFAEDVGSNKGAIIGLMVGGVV
Source text: The nucleation assay is employed to determine the ability of test compounds to alter (e.g. inhibit) the early events in formation of β-AP fibers from monomeric β-AP. […] The time delay before polymerization of β-AP monomer can be quantified as well as the extent of formation of insoluble fiber by light scattering (turbidity). Polymerization reaches equilibrium when the maximum turbidity reaches a plateau. The turbidity of a solution of natural β-AP in the absence or presence of various concentrations of a β-amyloid modulator compound is determined by measuring the apparent absorbance of the solution at 405 nm (A405 nm) over time. The threshold of sensitivity for the measurement of turbidity is in the range of 15-20 μM β-AP. […] This assay can be performed using stirring or shaking to accelerate polymerization, thereby increasing the speed of the assay. Moreover the assay can be adapted to a 96-well plate format to screen multiple compounds.
HFIP-solubilized peptide is sonicated in a waterbath sonicator for 5 mM at highest setting, then evaporated to dryness under a stream of argon. The peptide film is resuspended in anhydrous dimethylsulfoxide (DMSO) at a concentration of 6.9 mg/ml (25× concentration), sonicated for 5 mM as before, then filtered through a 0.2 micron nylon syringe filter (VWR cat. No. 28196-050). Test compounds are dissolved in DMSO at a 100× concentration. […] Ten microliters of the mixture is then added to the bottom of a well of a Corning Costar ultra low binding 96-well plate (Corning Costar, Cambridge Mass.; cat. No. 2500). Ninety microliters of water is added to the well, the plate is shaken on a rotary shaken at a constant speed at room temperature for 30 seconds, an additional 100 μl of 2×PTL buffer (20 mM NaH2PO4, 300 mM NaCl, pH 7.4) is added to the well, the plate is reshaken for 30 seconds and a baseline (t=0) turbidity reading is taken by measuring the apparent absorbance at 405 nm using a Bio-Rad Model 450 Microplate Reader. The plate is then returned to the shaker and shaken continuously for 5 hours. Turbidity readings are taken at 15 minute intervals.
β-amyloid aggregation in the absence of any modulators results in enhanced turbidity of the natural β-AP solution (i.e., an increase in the apparent absorbance at 405 nm over time).
Accordingly a fold increase in lag time of 1.0 indicates no change in lag time, whereas numbers >1.0 indicate an increase in lag time. The “% inhibition of plateau”, which is a measure of the ability of the compound to decrease the total amount of aggregation, refers to the reduction of the final turbidity in the presence of the test compound expressed as a percent of the control without the test compound.

Molecule | neurotoxicity of Aβ1-40 solution preincubated with modulator ([1]; modulator preincubated with Aβ1-40 monomers, applied to cells 48 hours, MTT) | Fold Increase in Lag Time ([2]; Table II, 100 mole % vs 50 μM Aβ1-40) | Fold Increase in Lag Time ([2]; Table III, 10 mole %) | Fold Increase in Lag Time ([2]; Table III, 100 mole %) | Fold Increase in Lag Time ([2]; Table IV, 10 mole %) | aggregation of Aβ1-40 (turbidity) ([2]; equimolar: Aβ1-40 and modulator both 64 μM, FIG. 4 panel A) | delay of the appearance of neurotoxicity relative to control [1] | Fold Increase in Lag Time ([2]; Table IV, 33 mole %) | ΔLag (ratio of lag time with test compound to lag time of control) [2] | inhibition at 100 mol % [2] | Fold Increase in Lag Time ([2]; Table III, 33 mole %) | Fold Increase in Lag Time ([2]; Table IV, 100 mole %) | Fold Increase in Lag Time ([2]; Table III, 38 mole %)
CC(C)C[C@H](NC(=O)[C@H](CCCCN)NC(=O)[C@H](CCC(N)=O)NC(=O)[C@H](Cc1c[nH]cn1)NC(=O)[C@H](Cc1c[nH]cn1)NC(=O)[C@@H](NC(=O)[C@H](CCC(=O)O)NC(=O)[C@H](Cc1ccc(O)cc1)NC(=O)CNC(=O)[C@H](CO)NC(=O)[C@H](CC(=O)O)NC(=O)[C@H](Cc1c[nH]cn1)NC(=O)CC[C@@H](C)[C@H]1CC[C@H]2[C@@H]3[C@H](O)C[C@@H]4C[C@H](O)CC[C@]4(C)[C@H]3C[C@H](O)[C@]12C)C(C)C)C(=O)N[C@H](C(=O)N[C@@H](Cc1ccccc1)C(=O)N[C@@H](Cc1ccccc1)C(=O)O)C(C)C [PPI-264, cholyl-Aβ6-20] (Cholyl-HDSGYEVHHQKLVFF-OH) | inhibits the neurotoxicity of the Aβ1-40 solution | >4.5 fold | 2 fold | >4.5 fold | 2.0 fold | effective at inhibiting aggregation of Aβ140 |  |  |  |  |  |  | 
CC(C)C[C@H](NC(=O)[C@H](CCCCN)NC(=O)CC[C@@H](C)[C@H]1CC[C@H]2[C@@H]3[C@H](O)C[C@@H]4C[C@H](O)CC[C@]4(C)[C@H]3C[C@H](O)[C@]12C)C(=O)N[C@H](C(=O)N[C@@H](Cc1ccccc1)C(=O)N[C@@H](Cc1ccccc1)C(N)=O)C(C)C [PPI-319, cholyl-Aβ16-20-amide] |  |  |  |  | 2.7 fold |  | coincided with the delay in the time at which polymerization of Aβ began | 5.6 fold | 5.4 | 70% |  |  | 
CC(C)C[C@H](NC(=O)[C@H](CCCCN)NC(=O)[C@H](CCC(N)=O)NC(=O)CC[C@@H](C)[C@H]1CC[C@H]2[C@@H]3[C@H](O)C[C@@H]4C[C@H](O)CC[C@]4(C)[C@H]3C[C@H](O)[C@]12C)C(=O)N[C@H](C(=O)N[C@@H](Cc1ccccc1)C(=O)N[C@@H](Cc1ccccc1)C(=O)O)C(C)C [PPI-349, cholyl-Aβ15-20] |  |  |  |  | 2.1 fold |  | coincided with the delay in the time at which polymerization of Aβ began | 2.6 fold | >5 | 100% | 2.3 fold | >5.0 fold | 
CC(C)C[C@H](NC(=O)[C@H](CCCCN)NC(=O)CC[C@@H](C)[C@H]1CC[C@H]2[C@@H]3[C@H](O)C[C@@H]4C[C@H](O)CC[C@]4(C)[C@H]3C[C@H](O)[C@]12C)C(=O)N[C@H](C(=O)N[C@@H](Cc1ccccc1)C(=O)N[C@@H](Cc1ccccc1)C(=O)O)C(C)C [PPI-350, cholyl-Aβ16-20] |  |  |  |  | 2.4 fold |  | coincided with the delay in the time at which polymerization of Aβ began |  | 1.8 | 72% |  | >5.0 fold | 3.4 fold
CC(C)C[C@H](NC(=O)CC[C@@H](C)[C@H]1CC[C@H]2[C@@H]3[C@H](O)C[C@@H]4C[C@H](O)CC[C@]4(C)[C@H]3C[C@H](O)[C@]12C)C(=O)N[C@H](C(=O)N[C@@H](Cc1ccccc1)C(=O)N[C@@H](Cc1ccccc1)C(=O)N[C@@H](C)C(=O)O)C(C)C [PPI-368, cholyl-Aβ17-21] |  |  |  |  |  |  | coincided with the delay in the time at which polymerization of Aβ began |  | >5 | 100% |  | >5.0 fold | 
PPI-426: CA-FFVLA-oh, rearranged Aβ17-21 |  |  |  |  |  |  | coincided with the delay in the time at which polymerization of Aβ began |  |  |  |  |  | 
